The source of these data is PMC2365028, “Transepithelial Transport and Metabolism of Boronated Dipeptides Across Caco-2 and HCT-8 Cell Monolayers” (Metal-Based Drugs, 1996).

“And” between values parts separate entries of the source, which are not always exact repeats. Equal values may be shown once. Where a SMILES comes first, the peptide text is derived from it.

For series [1], the system named is Caco-2 cell monolayers. Description: Apical-to-basal transport and metabolism across Caco-2 cell monolayers (Transwell). Particulars: for Apparent permeability coefficient Pe + SD / % Mass Balance / % Mass Transported / % Mass in Apical Side / Pseudo first-order rate constant k + SD / % Ester in the basal compartment / % FA (corresponding free acid) in the basal compartment: 4 h; for % Ester in the basal compartment / % FA (corresponding free acid) in the basal compartment: Table 9, side-by-side experiment; for recovery after quantitating the free acids at the conclusion of transport experiments: ester plus free acid. An excerpt:
(§1) TRANSEPITHELIAL TRANSPORT AND METABOLISM OF BORONATED DIPEPTIDES ACROSS CACO-2 AND HCT-8 CELL MONOLAYERS Amy L. Elkins,John G. Eley,3, Merrill C. […] This study examined the effect of boronation on the transepithelial transport and metabolism of three glycine-phenylalanine dipeptides in Caco-2 and HCT-8 cell monolayers. […] Oral delivery of proteins and peptides as therapeutic agents is problematic due to their low bioavailability. This is mainly due to both their poor permeability across cellular barriers and to enzymatic degradation that occurs in the gut lumen, brush border, and enterocyte cytoplasm (2). […] Such as a substitution may also have the potential to alter the in vivo bioavailability of dipeptides. […] This study was undertaken to determine the effect of boronation on the transepithelial transport and metabolism of three glycine-phenylalanine dipeptides. […] Caco-2 cells are human colon adenocarcinoma cells first isolated from a primary colonic tumor (4). The cell line undergoes spontaneous enterortic differentiation in culture after reaching cotfflucnce, and morphologically resembles small intestinal epitheliun after three xveeks in culture (5). These morphological characteristics include the development of a brush border region expressing microvilli, occluding junctions, dome formations, and the formation of tight junctions leading to cell polarity. […] The cell line expresses a dipeptide carrier transport system in both the apical and basal membranes (9-10). […] HCT-8 cells are human adenocarcinoma cells from the ileocecal region; as such, these cells may give a truer reflection of gut absorption compared to Caco-2 cells which are derived from the colonic region. The cells produce a polarized differentiated monolayer consisting of enterocyte-like columnar cells that are interconnected by mature tightjunctions and desmosomes and exposed microvilla (11). The structural and functional integrity of the tight junctions of cells grown on polyester filter cups (Falcon, BD) and membrane filter inserts (Transwell(R), Costar) have been confirmed by transmission electron microscopy, transepithelial electrical resistance measurements, and transport of impermeant markers such as mannitol and polyethylene glycol (11, 12). […] Compound//was donated by Boron Biologicals, Inc., Raleigh, NC. Compound 111 was synthesized as follows: L-phenylalanine methyl ester hydrochloride (2.09 g, 9.7 mmol) and dimethylglycine (1 g, 9.7 retool) xvere suspended in 30 ml dry tetrahydrofuran with 10 mmol of triethylamine, dicyclohexyl-carbodiinfide and hydrox3'benzotriazole. The reaction was stirred at room temperature for 48 hours under nitrogen and the solvent was removed under reduced pressure. The product was purified on silica gel, two void volumes of hexane, two void volumes hexane/ethanol (8'1), and then hexane/ethanol (5:1). […] For the transport studies, cells were diluted with growth medium to give a total of […] cells/cm in 1.5 mls. The 1.5 ntis was placed in the apical compartment of a Transwcll(R) (Costar). The Transxvell(R) system is a 6-well plate with each well having an apical compartment capacity of 1.5 ntis, a basal compartment capacity of 2.5 ntis, and a 4.71 cm polycarbonate microporous (0.45 gin) membrane separating the two compartments. Cell monolayers in the Transwell(R) were allowed to grow for 21 days while the medium was replaced every 3 days. The cells were grown in Dulbecco's Modified Eagle Medium (D-MEM) containing L-glutamine and sodium pyruvate at 37C under 5% CO-. and saturated humidity. Additives to the medium included 10% heat- inactivated fetal bovine serum, 10 mM nonessential amino acids, 100 units of penicillin and 100 mg of streptomycin per ml of medium. 278 A.L. Elkins, J.G. Eley, M.C.

Series [2] in a line: Stability in HBSS/HEPES buffer and apical/basal media without the Transwell system. As to conditions: HBSS/HEPES buffer pH 7.4, 37C, or apical and basal media. It counts as physicochemical.
Series [3] in a line: in vitro. As to conditions: human, Caco-2. The source says: (§2) TRANSEPITHELIAL TRANSPORT AND METABOLISM OF BORONATED DIPEPTIDES ACROSS CACO-2 AND HCT-8 CELL MONOLAYERS Amy L. Elkins,John G. Eley,3, Merrill C. […] This study examined the effect of boronation on the transepithelial transport and metabolism of three glycine-phenylalanine dipeptides in Caco-2 and HCT-8 cell monolayers. […] Oral delivery of proteins and peptides as therapeutic agents is problematic due to their low bioavailability. This is mainly due to both their poor permeability across cellular barriers and to enzymatic degradation that occurs in the gut lumen, brush border, and enterocyte cytoplasm (2). […] Such as a substitution may also have the potential to alter the in vivo bioavailability of dipeptides. […] This study was undertaken to determine the effect of boronation on the transepithelial transport and metabolism of three glycine-phenylalanine dipeptides. […] Caco-2 cells are human colon adenocarcinoma cells first isolated from a primary colonic tumor (4). The cell line undergoes spontaneous enterortic differentiation in culture after reaching cotfflucnce, and morphologically resembles small intestinal epitheliun after three xveeks in culture (5). These morphological characteristics include the development of a brush border region expressing microvilli, occluding junctions, dome formations, and the formation of tight junctions leading to cell polarity. […]

For series [4], the system named is brush border aminopeptidases. As to conditions: rat brush border aminopeptidases; cited from earlier work.
The conditions of series [5]: perfusion into the jejunum, two studies; cited from earlier work.
Series [6] relates to Caco-2 cell monolayers. Description: Basal-to-apical transport across Caco-2 cell monolayers. Particulars: basal-to-apical.
From the text: as §2

For series [7] the following is noted: 0.01N NaOH, 37C, 6 hours.
The test system of series [8] is various murine and human tissue cultured cancer cells. Particulars: cited from earlier work.
Series [9] relates to HCT-8 cell monolayers. The experiment in a line: Apical-to-basal transport across HCT-8 cell monolayers (Transwell).
From the text: as §1, with “The cells were grown in Dulbecco's Modified Eagle Medium (D-MEM) containing L-glutamine and sodium pyruvate at 37C under 5% CO-. and saturated humidity. Additives to the medium included 10% heat- inactivated fetal bovine serum, 10 mM nonessential amino acids, 100 units of penicillin and 100 mg of streptomycin per ml of medium. 278 A.L. Elkins, J.G. Eley, M.C.” left out

The mark [10] stands for this setting: Table 1, 37C static, initial concentration 0.75 mM.
The mark [11] stands for this setting: Table 1, 37C static, initial concentration 1.0 mM.
[12] abbreviates: Table 1, 37C static, initial concentration 2.5 mM.
[13] abbreviates: Table 1, 37C static, initial concentration 5.0 mM.
Setting [14] is: Table 1, 37C static, initial concentration 7.5 mM.
The mark [15] stands for this setting: Table 2, 37C static, initial concentration 1.0 mM.
Where [16] appears, read: Table 2, 37C static, initial concentration 5.0 mM (fourth row).
Where [17] appears, read: Table 2, 37C static, initial concentration 7.5 mM.
[18] abbreviates: Table 10, 37C static, 4 h, initial concentration 0.75 mM.

As to `COC(=O)[C@H](Cc1ccccc1)NC(=O)CN(C)C` [Compound III, N,N-dimethylglycyl-L-phenylalanine methyl ester], the Apparent permeability coefficient Pe + SD in series [1] (Table 8, 4C Static) was 8 ×10⁻⁶ cm/s.
Consider `COC(=O)[C@H](Cc1ccccc1)NC(=O)[BH2-][NH+](C)C` [Compound II, N-[(dimethylamine-boryl)-carbonyl]-L-phenylalanine methyl ester], for which the “% Mass Balance” value in [1] (Table 5, 4C Rocking) came to 81.8%; in series [1] (Table 5, 4C Static) it was 79.9%; in series [1] (Table 5, 37C Static), 57.7%. In addition, the “% Mass Transported” value in [1] (Table 5, 4C Rocking) is given as 37.3%; in series [1] (Table 5, 4C Static), 39.3%; in series [1] (Table 5, 37C Static) it was 52.7%. The “% Mass in Apical Side” value in series [1] (Table 5, 4C Rocking) amounted to 44.5%; in [1] (Table 5, 4C Static), 40.6%; in series [1] (Table 5, 37C Static), 5.0%. Moreover, the “Mass Transported (collected in the basal medium after 4 hours)” value in [1] (Table 5, initial concentration figure not printed (mM), 4C Rocking) is 0.56; in series [1] (Table 5, initial concentration figure not printed (mM), 4C Static), 0.59; in series [1] (Table 5, initial concentration figure not printed (mM), 37C Static) it was 0.79. Besides, the Apparent permeability coefficient Pe + SD in series [1] (Table 6, 37C Rocking) is 48 ×10⁻⁶ cm/s. Moreover, the “Pseudo first-order rate constant k + SD” value in series [1] (Table 6, 37C Rocking) was 2.8 + 0.22 x 104/sec. The “% Ester in the basal compartment” value in series [1] (4C Rocking) was 55.5%; in series [1] (4C Static) it was 59.4%; in series [1] (37C Static), 48.6% and 49%. Moreover, the “% FA (corresponding free acid) in the basal compartment” value is “inhibited” in series [1] (4C Rocking); “inhibited” in [1] (4C Static); 51.5% and 52% in series [1] (37C Static). For the same compound, in [1] (apical-to-basal), the “mode of transport across the monolayer” value is given as “passive diffusion”. The “compound recovered after transport through Caco-2 cell monolayers” value (“compound recovered” below) in [1] (apical-to-basal, 4 hours) is listed as 58%. Also, the “recovery after quantitating the free acids at the conclusion of transport experiments” value in [1] was determined as 100%. Moreover, the “% of the original ester at 25 hours” value in series [2] amounted to 90%.
On to `CCCOC(=O)c1ccc(O)cc1` [Propyl paraben, reference compound], for which, in series [1] (Caco-2), the “mode of transport across the monolayer” value is on record as “passive diffusion”. In [1] (human, Caco-2, 4 h), the “compound recovered” value worked out at 100%. Moreover, in series [3], the recovery came out at 100%.
Consider `NCC(=O)N[C@@H](Cc1ccccc1)C(=O)O` [glycine-phenylalanine] (H-Gly-Phe-OH), for which the substrate specificity in [4] was 85%. In series [5], the disappearance rate is 68% and 79%.
On to `COC(=O)[C@H](Cc1ccccc1)NC(=O)[BH2-][N+](C)(C)C` [Compound I, N-[(trimethylamine-boryl)-carbonyl]-L-phenylalanine methyl ester], for which the “% Mass Balance” value was determined as 63.8% in series [1] (setting [10]); 67.8% in [1] (setting [11]); 73.0% in series [1] (setting [12]); 71.0% in [1] (setting [13]); 74.6% in series [1] (setting [14]); 89.3% in series [1] (Table 3, 2.5 mM, 4C Rocking). Further, the “% Mass Balance” value is 73.1% in [1] (Table 3, 2.5 mM, 37C Static) and 88.2% in series [9] (setting [18]). In addition, the “% Mass Transported” value in [1] (setting [10]) was 62.2%; in series [1] (setting [11]), 60.0%; in series [1] (setting [12]), 64.0%; in series [1] (setting [13]) it was 62.7%; in series [1] (setting [14]) it was 66.7%; in [1] (Table 3, 2.5 mM, 4C Rocking), 48.6%. In addition, the “% Mass Transported” value worked out at 56.9% in [1] (Table 3, 2.5 mM, 37C Static) and 77.3% in [9] (setting [18]). Besides, the “% Mass in Apical Side” value is listed as 1.6% in series [1] (setting [10]); 7.8% in [1] (setting [11]); 9.0% in series [1] (setting [12]); 8.3% in series [1] (setting [13]); 40.7% in series [1] (Table 3, 2.5 mM, 4C Rocking); 2% in series [1] (Table 3, 2.5 mM, 37C Rocking). Further, the “% Mass in Apical Side” value in series [9] (setting [18]) was 10.9%. In addition, the “Mass Transported (collected in the basal medium after 4 hours)” value was 0.90 in [1] (setting [11]); 2.4 in series [1] (setting [12]); 4.7 in series [1] (setting [13]); 7.5 in [1] (setting [14]); 1.8 in [1] (Table 3, initial concentration 2.5 mM, 4C Rocking); 3.0 in series [1] (Table 3, initial concentration 2.5 mM, 37C Rocking). Besides, the “Mass Transported (collected in the basal medium after 4 hours)” value is recorded as 2.1 in series [1] (Table 3, initial concentration 2.5 mM, 37C Static) and 0.87 in series [9] (Table 10, 37C static, initial concentration 0.75 mM). The “Pseudo first-order rate constant k + SD” value in [1] (Table 2, 37C static, initial concentration 0.75 mM) is listed as 1.76 + 0.06 x 104/sec; in series [1] (setting [15]) it was 1.70 + 0.08 x 104/sec; in [1] (setting [16]) it was 1.35 + 0.17 x 104/sec; in [1] (setting [17]), 1.56 + 0.11 x 104/sec; in [1] (Table 4, 2.5 mM, 37C Rocking), 3.54 + 0.06 x 104/sec; in series [1] (Table 4, 2.5 mM, 37C Static) it was 1.03 + 0.06 x 104/sec. Further, the Apparent permeability coefficient Pe + SD in series [1] (setting [15]) was determined as 35.1 ×10⁻⁶ cm/s; in series [1] (Table 2, 37C static, initial concentration 2.5 mM) it was 37.5 ×10⁻⁶ cm/s; in series [1] (setting [16]), 32 ×10⁻⁶ cm/s; in [1] (setting [17]), 37.5 ×10⁻⁶ cm/s. The “% Ester in the basal compartment” value was 74.0% in series [1] (4C Rocking); 61.8% in series [1] (4C Static); 44.4% and 44% in series [1] (37C Static). Besides, the “% FA (corresponding free acid) in the basal compartment” value in series [1] (4C Rocking) was “none”; in [1] (4C Static), “none”; in [1] (37C Static) it was 44.4% and 44%. In addition, the “mode of transport across the monolayer” value in series [1] (apical-to-basal) is recorded as “passive diffusion”. Besides, the “compound recovered” value in series [1] (apical-to-basal, 4 hours) was “Approximately 70%”. Also, the “recovery after quantitating the free acids at the conclusion of transport experiments” value in [1] stood at 100%. The “ester remaining in the apical compartment” value in [1] (side-by-side experiment, 37C static, 4 hours) is “none”. Besides, in series [2], the “% of the original ester at 25 hours” value is recorded as 96%. In addition, the “recovery in basal-to-apical transport experiments” value in series [6] is given as 100%. In addition, the “ester degradation to the free acid” value in [7] is listed as “all ofthe ester was degraded”. Further, the cytotoxicity entry in [8] is listed as “potent”. Besides, the “unaccounted for as the ester or the respective free acid” value in series [9] (HCT-8 cell monolayers) is reported as about 45%.
